Data published in US9504673B2, “Agent for the prophylaxis and treatment of highly pathogenic infectious diseases” (priority 2009, dated 2016).
Values joined by “and” are separate entries in the source; they are usually repeats but may differ in a detail not shown here. Equal values may be shown once. Read-outs that look alike come from different tables or passages of the source.

Key:
[1] = system: influenza virus strain A/chicken/Kurgan/Russia/02/05 (H5N1); parameters: species or system white mice; details: mouse, in vivo, po
[2] = system: severe acute respiratory syndrome virus; parameters: species or system Syrian hamsters; details: hamster, in vivo, po
[3] = Acute toxicity study of glutaryl histamine; details: male, nonlinear white (outbred), mouse, in vivo, po

| Compound | Death rate ([1]; 135 mg/kg) | Increase of mean lifetime Δ ([1]; 135 mg/kg) | Mean lifetime of animals in the group ([1]; 135 mg/kg) | Death rate ([1]; 5 mg/kg) | Deaths ([1]; 5 mg/kg) | Increase of mean lifetime Δ ([1]; 5 mg/kg) | Mean lifetime of animals in the group ([1]; 5 mg/kg) | Protective efficacy against death, % ([1]; 5 mg/kg) | Death rate ([1]; 15 mg/kg) | Increase of mean lifetime Δ ([1]; 15 mg/kg) | Mean lifetime of animals in the group ([1]; 15 mg/kg) | Protective efficacy against death, % ([1]; 15 mg/kg) | Therapeutic efficacy, % ([2]; 5 mg/kg) | Virus yield in the lungs at peak of infection (on day 4) 1 g PFU/ml ([2]; 5 mg/kg) | Virus yield in the lungs at peak of infection (on day 4) Δ, 1 g ([2]; 5 mg/kg) | Therapeutic efficacy, % ([2]; 15 mg/kg) | Virus yield in the lungs at peak of infection (on day 4) 1 g PFU/ml ([2]; 15 mg/kg) | Virus yield in the lungs at peak of infection (on day 4) Δ, 1 g ([2]; 15 mg/kg) | LD50 [3] |
| --- | --- | --- | --- | --- | --- | --- | --- | --- | --- | --- | --- | --- | --- | --- | --- | --- | --- | --- | --- |
| CCOC(=O)c1c(CSc2ccccc2)n(C)c2cc(Br)c(O)c(CN(C)C)c12 [Arbidol ®, reference compound] | 15/20 and 18/20 | 1.4 days and 1.1 days | 8.0 days and 7.2 days | – | – | – | – | – | – | – | – | – | – | – | – | – | – | – | – |
| O=C(O)CCCC(=O)NCCc1c[nH]cn1 [glutaryl histamine] | – | – | – | 12/20 | 11 | 2.7 days and 1.8 days | 10.9 days and 10.0 days | 45% and 40% | 12/20 and 13/20 | 2.4 days and 2.0 days | 11.0 days and 8.7 days | 40% and 35% | 20.0% and 30.0% | 7.5 1 g PFU/ml and 7.0 1 g PFU/ml | 0.8 1 g and 0.9 1 g | 40% | 3.8 1 g PFU/ml | 2.4 1 g | > 10000 mg/kg |
